Marks after values point to notes of the source that are not given here.
Assays:
[1] = test system: RAW 264.7; format: cell-based, mouse
[2] = test system: HEK293T; format: cell-based, human
[3] = test system: Caco-2; format: cell-based, human
[4] = test system: Caco-2 cells
[5] = test system: HepG2; format: cell-based, human
[6] = test system: HEK 293T cells; format: cell-based, human
[7] = test system: HEK293T cells; format: cell-based, human; details: read-out: IC50 halving the HEK293T cells viability
[8] = test system: HepG2, Caco-2, RAW 264.7, and HEK 293T cells; details: read-out: IC50 range in studied cells
[9] = test system: HEK293T; format: cell-based, human; remark: listed apart in the source
[10] = test system: cells; details: cited from earlier work

diacetoxyscirpenol [DAS]
IC50 [1]: 3.66 ± 0.37 nM
IC50 [2]: 6.58 ± 0.36 nM
IC50 [3]: 17.7 ± 0.66 nM
metabolites found by non-target U-HPLC-MS analysis [4]: 15-monoacetoxyscirpenol, 4-monoacetoxyscirpenol, 7-hydroxy, 8β-hydroxy, and deepoxy-15- monoacetoxyscirpenol
transepithelial transport, Apical Medium [4]: 29.61 ± 0.87^abc %
transepithelial transport, Basolateral Medium [4]: 40.12 ± 0.50^f %
transepithelial transport, Caco-2 Cells [4]: 0.02 ± 0.00^a %
transepithelial transport, Raw 264.7 Cells [4]: 0.02 ± 0.00^a %
transepithelial transport, Total [4]: 69.77 ± 0.99^cd %
IC50 [5]: 13.4 ± 1.79 nM
combination index, silibinin 0.9 µM [6]: 1.00 ± 0.04 Add
combination index, silibinin 1.7 µM [6]: 1.23 ± 0.06 Ant
combination index, silibinin 3.4 µM [6]: 1.21 ± 0.05 Ant
combination index, silibinin 6.8 µM [6]: 1.50 ± 0.04 Ant
combination index, silibinin 13.6 µM [6]: 1.56 ± 0.13 Ant
combination index, silibinin 27.3 µM [6]: 1.48 ± 0.08 Ant
combination index, silibinin 54.5 µM [6]: 1.15 ± 0.02 Ant
combination index, silibinin 109.00 µM [6]: 1.14 ± 0.01 Ant
type of interaction, silibinin 0.9 µM [6]: 1.00 ± 0.04 Add (key: Syn: Combination index (CI) < 0.9; Add: 0.9 ≤ CI ≤ 1; Ant: CI > 1)
type of interaction, silibinin 1.7 µM [6]: 1.23 ± 0.06 Ant (key: Syn: Combination index (CI) < 0.9; Add: 0.9 ≤ CI ≤ 1; Ant: CI > 1)
type of interaction, silibinin 3.4 µM [6]: 1.21 ± 0.05 Ant (key: Syn: Combination index (CI) < 0.9; Add: 0.9 ≤ CI ≤ 1; Ant: CI > 1)
type of interaction, silibinin 6.8 µM [6]: 1.50 ± 0.04 Ant (key: Syn: Combination index (CI) < 0.9; Add: 0.9 ≤ CI ≤ 1; Ant: CI > 1)
type of interaction, silibinin 13.6 µM [6]: 1.56 ± 0.13 Ant (key: Syn: Combination index (CI) < 0.9; Add: 0.9 ≤ CI ≤ 1; Ant: CI > 1)
type of interaction, silibinin 27.3 µM [6]: 1.48 ± 0.08 Ant (key: Syn: Combination index (CI) < 0.9; Add: 0.9 ≤ CI ≤ 1; Ant: CI > 1)
type of interaction, silibinin 54.5 µM [6]: 1.15 ± 0.02 Ant (key: Syn: Combination index (CI) < 0.9; Add: 0.9 ≤ CI ≤ 1; Ant: CI > 1)
type of interaction, silibinin 109.00 µM [6]: 1.14 ± 0.01 Ant (key: Syn: Combination index (CI) < 0.9; Add: 0.9 ≤ CI ≤ 1; Ant: CI > 1)
IC50 [7]: 15 nM
IC50 [8]: 3.66 to 17.7 nM
combination index, mixture of T-2 (3.87 nM) [9]: 0.64 ± 0.01 Syn
type of interaction, mixture of T-2 (3.87 nM) [9]: 0.64 ± 0.01 Syn (key: Syn: Combination index (CI) < 0.9; Add: 0.9 ≤ CI ≤ 1; Ant: CI > 1)

enniatin A [ENN-A]
concentration with statistically significant decrease in viability of cells [10]: 1 µM
combination index, mixture of DAS (6.58 nM) [9]: 0.83 ± 0.05 Syn
combination index, mixture of HT-2 (21.22 nM) [9]: 0.80 ± 0.06 Syn
combination index, mixture of T-2 (3.87 nM) [9]: 0.86 ± 0.07 Syn
type of interaction, mixture of DAS (6.58 nM) [9]: 0.83 ± 0.05 Syn (key: Syn: Combination index (CI) < 0.9; Add: 0.9 ≤ CI ≤ 1; Ant: CI > 1)
type of interaction, mixture of HT-2 (21.22 nM) [9]: 0.80 ± 0.06 Syn (key: Syn: Combination index (CI) < 0.9; Add: 0.9 ≤ CI ≤ 1; Ant: CI > 1)
type of interaction, mixture of T-2 (3.87 nM) [9]: 0.86 ± 0.07 Syn (key: Syn: Combination index (CI) < 0.9; Add: 0.9 ≤ CI ≤ 1; Ant: CI > 1)

enniatin A1 [ENN-A1]
concentration with statistically significant decrease in viability of cells [10]: 1 µM
combination index, mixture of DAS (6.58 nM) [9]: 0.79 ± 0.04 Syn
combination index, mixture of HT-2 (21.22 nM) [9]: 0.93 ± 0.01 Add
combination index, mixture of T-2 (3.87 nM) [9]: 1.27 ± 0.13 Ant
type of interaction, mixture of DAS (6.58 nM) [9]: 0.79 ± 0.04 Syn (key: Syn: Combination index (CI) < 0.9; Add: 0.9 ≤ CI ≤ 1; Ant: CI > 1)
type of interaction, mixture of HT-2 (21.22 nM) [9]: 0.93 ± 0.01 Add (key: Syn: Combination index (CI) < 0.9; Add: 0.9 ≤ CI ≤ 1; Ant: CI > 1)
type of interaction, mixture of T-2 (3.87 nM) [9]: 1.27 ± 0.13 Ant (key: Syn: Combination index (CI) < 0.9; Add: 0.9 ≤ CI ≤ 1; Ant: CI > 1)

— PMC7150870 (Toxins, 2020)
